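GI50 marks 50% less growth. TGI marks complete inhibition of growth.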
Legend:
Test in all cases: NCI anticancer screen, dose series, 384-well format
[1] = tested on: SN12C renal
[2] = tested on: HCC-2998 colon
[3] = tested on: A549 NSCLC
[4] = tested on: HL-60(TB) leukemia
[5] = tested on: HS 578T breast
[6] = tested on: CCRF-CEM leukemia
[7] = tested on: OVCAR-3 ovarian
[8] = tested on: SNB-19 CNS
[9] = tested on: M14 melanoma
[10] = tested on: OVCAR-4 ovarian
[11] = tested on: MALME-3M melanoma
[12] = tested on: SF-539 CNS
[13] = tested on: UACC-62 melanoma
[14] = tested on: TK-10 renal
[15] = tested on: NCI/ADR-RES ovarian
[16] = tested on: MCF7 breast
[17] = tested on: BT-549 breast
[18] = tested on: SW-620 colon
[19] = tested on: HOP-62 NSCLC
[20] = tested on: NCI-H522 lung
[21] = tested on: MDA-MB-435 melanoma
[22] = tested on: NCI-H460 NSCLC
[23] = tested on: DU-145 prostate
[24] = tested on: KM12 colon
[25] = tested on: UACC-257 melanoma
[26] = tested on: PC-3 prostate
[27] = tested on: ACHN renal
[28] = tested on: OVCAR-5 ovarian
[29] = tested on: SF-295 CNS
[30] = tested on: RPMI-8226 leukemia
[31] = tested on: HCT-15 colon
[32] = tested on: RXF 393 renal
[33] = tested on: SK-MEL-28 melanoma
[34] = tested on: IGROV1 ovarian
[35] = tested on: NCI-H322M lung
[36] = tested on: K-562 leukemia
[37] = tested on: SNB-75 CNS
[38] = tested on: UO-31 renal
[39] = tested on: EKVX NSCLC
[40] = tested on: SK-OV-3 ovarian
[41] = tested on: LOX IMVI melanoma
[42] = tested on: NCI-H23 lung
[43] = tested on: CAKI-1 renal
[44] = tested on: SF-268 CNS
[45] = tested on: SK-MEL-5 melanoma
[46] = tested on: U251 glioblastoma
[47] = tested on: 786-0 renal
[48] = tested on: T-47D breast
[49] = tested on: NCI-H226 lung
[50] = tested on: HT29 colon
[51] = tested on: MDA-MB-468 breast
[52] = tested on: A498 renal
[53] = tested on: COLO 205 colon
[54] = tested on: OVCAR-8 ovarian

SMILES: CCS(=O)(=O)c1cccc(-c2cc(C(=O)NC3CCN(C)CC3)c(C)c3[nH]c4ncc(C)cc4c23)c1
- GI50 [1]: 51.5 nM
- TGI [1]: 267 nM
- GI50 [2]: 168 nM
- TGI [2]: 1240 nM
- GI50 [3]: 58 nM
- TGI [3]: 1200 nM
- GI50 [4]: 31.8 nM
- TGI [4]: 126 nM
- GI50 [5]: 58.1 nM
- TGI [5]: 216 nM
- TGI [6]: 12.1 nM
- GI50 [7]: 103 nM
- TGI [7]: 298 nM
- GI50 [8]: 192 nM
- TGI [8]: 1390 nM
- GI50 [9]: 437 nM
- TGI [9]: 2040 nM
- GI50 [10]: 953 nM
- TGI [10]: 5040 nM
- GI50 [11]: 240 nM
- TGI [11]: 1460 nM
- GI50 [12]: 59 nM
- TGI [12]: 233 nM
- GI50 [13]: 158 nM
- TGI [13]: 1120 nM
- GI50 [14]: 1740 nM
- TGI [14]: 5520 nM
- GI50 [15]: > 100000 nM
- TGI [15]: > 100000 nM
- GI50 [16]: 12.6 nM
- TGI [16]: 2130 nM
- GI50 [17]: 144 nM
- TGI [17]: 326 nM
- GI50 [18]: 181 nM
- TGI [18]: 1250 nM
- GI50 [19]: 161 nM
- TGI [19]: 1290 nM
- GI50 [20]: 19.4 nM
- TGI [20]: 126 nM
- GI50 [21]: 366 nM
- TGI [21]: 1900 nM
- GI50 [22]: 36.2 nM
- TGI [22]: 1080 nM
- GI50 [23]: 343 nM
- TGI [23]: 4340 nM
- GI50 [24]: 24.2 nM
- TGI [24]: 1110 nM
- GI50 [25]: 139 nM
- TGI [25]: 935 nM
- GI50 [26]: 219 nM
- TGI [26]: 2710 nM
- GI50 [27]: 2370 nM
- TGI [27]: 13200 nM
- GI50 [28]: 185 nM
- TGI [28]: 827 nM
- GI50 [29]: 399 nM
- TGI [29]: 3610 nM
- GI50 [30]: 49.7 nM
- TGI [30]: 226 nM
- GI50 [31]: 3960 nM
- TGI [31]: 19800 nM
- GI50 [32]: 112 nM
- TGI [32]: 384 nM
- GI50 [33]: 279 nM
- TGI [33]: 1300 nM
- GI50 [34]: 40.8 nM
- TGI [34]: 230 nM
- GI50 [35]: 541 nM
- TGI [35]: 2440 nM
- GI50 [36]: 32.2 nM
- TGI [36]: 761 nM
- GI50 [37]: 101 nM
- TGI [37]: 226 nM
- GI50 [38]: 5480 nM
- TGI [38]: 19100 nM
- GI50 [39]: 270 nM
- TGI [39]: 1930 nM
- GI50 [40]: 135 nM
- TGI [40]: 869 nM
- GI50 [41]: 84.9 nM
- TGI [41]: 229 nM
- GI50 [42]: 66.9 nM
- TGI [42]: 343 nM
- GI50 [43]: 328 nM
- TGI [43]: 5340 nM
- GI50 [44]: 17.8 nM
- TGI [44]: 91.1 nM
- GI50 [45]: 264 nM
- TGI [45]: 1680 nM
- GI50 [46]: 202 nM
- TGI [46]: 902 nM
- GI50 [47]: 1000 nM
- TGI [47]: 2460 nM
- GI50 [48]: 59.2 nM
- TGI [48]: 270 nM
- GI50 [49]: 39.2 nM
- TGI [49]: 441 nM
- GI50 [50]: 215 nM
- TGI [50]: 10500 nM
- GI50 [51]: 17.9 nM
- TGI [51]: 88.6 nM
- GI50 [52]: 1400 nM
- TGI [52]: 5500 nM
- GI50 [53]: 18.3 nM
- TGI [53]: 98.1 nM
- GI50 [54]: 309 nM
- TGI [54]: 1490 nM

— PubChem BioAssay (NCI)
